According to article PMC11943723, “Synthesis and Biological Activity of Glycosyl Thiazolyl Disulfides Based on Thiacarpine, an Analogue of the Cytotoxic Alkaloid Polycarpine from the Ascidian Polycarpa aurata” (Marine Drugs, 2025):
≈ marks a conversion by molar mass, not a printed value. Where a name gives a salt, the structure may show the parent alone. Read-outs that look alike come from different tables or passages of the source.

What was measured:
HeLa (cervical cancer) = experiment: MTT cell viability assay, HeLa; assay type: cell-based, human; conditions: Homo sapiens, HeLa, 24 h, 24 h incubation, read-out: Cytotoxicity EC50, HeLa
Excerpt: (§1) Human erythrocytes were purchased from the blood transfusion station Vladivostok. Human breast cancer cell lines MCF-7^HTB−22, and MDA-MB-231^CRM-HTB−26, liver hepatocellular carcinoma Hep G2^HB−8065, prostate adenocarcinoma PC-3^CRL−1435, cervical adenocarcinoma HeLa^CRM-CCL−2, and normal bronchial epithelial cells BEAS-2B ^CRL−3588 were received from ATCC (Manassas, VA, USA).
(§2) DMEM medium (Biolot, Russia) with 1% penicillin/streptomycin and 10% fetal bovine serum (FBS) (Biolot, Russia) was used for cultivation of Hep G2, PC-3, HeLa, and Beas-2b. MEM medium (Biolot, Russia) with 1% penicillin/streptomycin sulfate (Biolot, Russia) and FBS (Biolot, Russia) to a final concentration of 10% for MCF-7 and MDA-MB-231 cells.
(§3) The effect of the studied compounds on the viability of human cancer and normal cells was determined using the MTT (3-[4,5-dimethylthiazol-2-yl]-2,5 diphenyl tetrazolium bromide) assay. Briefly, 6 × 10^3 cells per well were seeded into 96-well plates and incubated for 24 h for adhesion, followed by incubation for 24 h with different concentrations of the substances. After incubation, the medium containing the test substances was replaced with 100 µL of fresh medium. Then, 10 μL of MTT (Sigma-Aldrich, Madison, WI, USA) reagent (5 mg/mL MTT in PBS) was added into the cells and the plates for additional 4 h. Thereafter, 100 µL of SDS-HCl solution (1 g SDS/10 mL dH2O/17 µL 6N HCl) was added to each well and incubated for 18 h. The absorbance of the converted formazan dye was measured using a Multiskan FC microplate photometer (Thermo Scientific, Waltham, MA, USA) at a wavelength of 570 nm. All experiments were performed in triplicate. Cytotoxic activity was expressed as a percentage of the cell viability.

[1] = test system: Hep G2 (hepatocellular carcinoma); experiment: MTT cell viability assay, Hep G2; assay type: cell-based; conditions: Homo sapiens, HepG2, 24 h incubation, read-out: Cytotoxicity EC50, Hep G2
Excerpt: as §1, §2, §3

Human erythrocytes = experiment: Hemolytic activity (destruction of erythrocyte membranes); assay type: cell-based
Excerpt: as §1

[2] = test system: Candida albicans (KMM 455); experiment: Antimicrobial activity, inhibition of microbial growth (optical density); assay type: cell-based; conditions: 18 h, OD 620 nm, read-out: Inhibition of Microbial Growth MIC50, C. albicans
Protocol: (§4) The antimicrobial activity of the compounds was determined against Gram-positive bacteria Staphylococcus aureus (ATCC 21027), Gram-negative bacteria Escherichia coli (VKPM B-7935), and yeast-like fungi Candida albicans (KMM 455) (all test strains were obtained from the Collection of Marine Microorganisms KMM PIBOC FEB RAS) in liquid nutrient media. Test cultures of S. aureus, E. coli, and C. albicans were grown in Petri dishes on a solid nutrient medium (Mueller–Hinton broth with the addition of agar—16.0 g/L) at 37 °C for 24 h. The antimicrobial activity of the compounds was determined by the change in optical density and expressed as the percentage of bacterial inhibition at different concentrations of substances added to the well of the microorganism suspension, compared to the control. The compounds were dissolved in dimethyl sulfoxide (DMSO) at a concentration of 10 mM and stored at −20 °C. Before the experiment, the solution of substances in DMSO was diluted with PBS at a concentration of 0.5–100.0 µM and added to the wells so that the concentration of DMSO in the culture medium was less than 1%. Antimicrobial activity was determined in 96-well microplates in a liquid Mueller–Hinton nutrient medium. For S. aureus, E. coli, and C. albicans, a bacterial suspension of 10^6 CFU in 1 mL of the media was used, 90 μL was added to each well of the microplates and then incubated in a thermostatted shaker at 37 °C for 18 h. Inhibition of microorganism growth was assessed by measuring the optical density at 620 nm using a microplate reader (Thermo Fisher Scientific, Waltham, MA, USA) after preliminary shaking of the plates for 10 min. All experiments were performed in triplicate. Gentamicin (S. aureus and E. coli) and nitrofungin (C. albicans) were used as positive controls, and 1% DMSO in PBS was used as a negative control.

[3] = test system: Escherichia coli (VKPM B-7935); experiment: as above; assay type: cell-based; conditions: 18 h, OD 620 nm, read-out: Inhibition of Microbial Growth MIC50, E. coli
Protocol: as §4

[4] = test system: Staphylococcus aureus (ATCC 21027); experiment: as above; assay type: cell-based; conditions: 18 h, OD 620 nm, read-out: Inhibition of Microbial Growth MIC50, S. aureus
Protocol: as §4

[5] = test system: MDA-MB-231 (triple-negative breast cancer); experiment: MTT cell viability assay, MDA-MB-231; assay type: cell-based, human; conditions: Homo sapiens, MDA-MB-231, 24 h, 24 h incubation, read-out: Cytotoxicity EC50, MDA-MB-231 (TNBC)
Excerpt: as §1, §2, §3

[6] = test system: Escherichia coli (VKPM B-7935); experiment: Inhibition of biofilm formation (MTT); assay type: cell-based; conditions: 24 h
Protocol: (§5) Biofilm formation was performed according to the method described by Walencka et al., with minor modifications. The compounds were dissolved in dimethyl sulfoxide (DMSO) at a concentration of 10 mM and stored at −20 °C. Before the experiment, the solution of substances in DMSO was diluted with PBS at a concentration of 0.5–100.0 µM and added to the wells so that the concentration of DMSO in the culture medium was less than 1%. Biofilm formation was assessed in 96-well microplates in a liquid Mueller–Hinton nutrient medium. For S. aureus, E. coli, and C. albicans, a bacterial suspension of 10^6 CFU in 1 mL of medium was used, 90 μL was added to each well of the microplates and then incubated in a thermostatted shaker at 37 °C for 24 h. After incubation, the suspension of planktonic microorganisms was removed from the plate and washed with PBS. Next, 100 μL of PBS and 10 μL of MTT (3-(4,5-dimethylthiazol-2-yl)-2,5-diphenyltetrazolium bromide, MTT reagent, Sigma) stock solution (5 mg/mL) were added to the wells and incubated for 3 h at 37 °C. After incubation, all the solution was removed from the wells, 100 μL of DMSO was added, and the plate was shaken for 10 min until all formazan crystals had dissolved. The absorption was measured using a plate reader (Thermo Fisher Scientific, Waltham, MA, USA) at a wavelength of 570 nm. The activity of the substances was assessed by the change in optical density compared with that of the control. All experiments were performed in triplicate. Gentamicin (S. aureus and E. coli) and nitrofungin (C. albicans) were used as positive controls, and 1% DMSO in PBS was used as a negative control.

[7] = test system: Staphylococcus aureus (ATCC 21027); experiment: Inhibition of biofilm formation (MTT); assay type: cell-based; conditions: 24 h
Protocol: as §5

HeLa cells = experiment: Colony formation (clonogenic) assay; assay type: cell-based; conditions: Homo sapiens, 336 h, 14 days
Protocol: The effect of the test compounds on HeLa cell proliferation was analyzed using a clonogenic assay. Briefly, HeLa cells were cultured in 6-well plates at a density of 1 × 10^2 cells per well, and compounds were added at concentrations of 5 or 10 μM. Untreated culture medium was used as a control. […] Before fixation and staining, the medium was removed and the cells were washed twice with PBS. The colonies were then fixed with methanol for 25 min and stained with 0.5% crystal violet for 25 min at room temperature. The plates were then washed with water and air-dried.

[8] = MTT cell viability assay, BEAS-2B normal cells; assay type: cell-based; conditions: human, BEAS-2B normal bronchial epithelial cells, 24 h incubation, read-out: Cytotoxicity EC50, BEAS 2B
Excerpt: as §1, §2, §3

[9] = test system: Candida albicans (KMM 455); experiment: Inhibition of biofilm formation (MTT); assay type: cell-based; conditions: 24 h
Protocol: as §5

[10] = Staphylococcus aureus, ATCC21027

CC(=O)OC[C@H]1O[C@@H](SSc2sc(N)nc2-c2ccc(Br)cc2)[C@H](OC(C)=O)[C@@H](OC(C)=O)[C@@H]1OC(C)=O [Compound 4c, 5-[(2,3,4,6-Tetra-O-acetyl-β-D-glucopyranosyl)disulfanyl]-2-amino-4-(4-bromophenyl)thiazole]
EC50 (HeLa (cervical cancer)): 19.4 µM
EC50 [1]: 24.3 µM
Hemolytic activity, erythrocytes (Human erythrocytes): > 25 µM
MIC50 ([2]; Candida albicans, KMM455): 7.1 ± 0.7 µM (≈ 4.61 µg/mL)
MIC50 ([3]; Escherichia coli): 6.9 ± 0.5 µM (≈ 4.48 µg/mL)
MIC50 [4, 10]: 2.3 ± 0.3 µM (≈ 1.49 µg/mL)
EC50 [5]: 21.7 µM
Inhibition of Biofilm Formation MIC50, E. coli [6]: 8.04 µM
Inhibition of Biofilm Formation MIC50, S. aureus [7]: 7.94 µM
inhibition at 10 µM (HeLa cells): 76%
EC50 at 24 h [8]: 15.5 µM

CC(=O)OC[C@H]1O[C@@H](SSc2sc(N)nc2-c2ccc(Cl)cc2)[C@H](OC(C)=O)[C@@H](OC(C)=O)[C@@H]1OC(C)=O [Compound 4d, 5-[(2,3,4,6-Tetra-O-acetyl-β-D-glucopyranosyl)disulfanyl]-2-amino-4-(4-chlorophenyl)thiazole]
EC50 (HeLa (cervical cancer)): > 25 µM
EC50 [1]: > 25 µM
MIC50 ([2]; Candida albicans, KMM455): 6.9 ± 0.9 µM (≈ 4.18 µg/mL)
MIC50 ([3]; Escherichia coli): 16.1 ± 1.7 µM (≈ 9.74 µg/mL)
MIC50 [4, 10]: 19.2 ± 2 µM (≈ 11.6 µg/mL)
EC50 [5]: 22.9 µM
Inhibition of Biofilm Formation MIC50, C. albicans [9]: 7.03 µM
EC50 at 24 h [8]: 14.1 µM

COc1ccc(-c2nc(N)sc2SS[C@@H]2OC[C@@H](OC(C)=O)[C@H](OC(C)=O)[C@H]2OC(C)=O)cc1 [Compound 4f, 5-[(2,3,4-Tri-O-acetyl-β-D-xylopyranosyl)disulfanyl]-2-amino-4-(4-methoxyphenyl)thiazole]
EC50 (HeLa (cervical cancer)): 20.4 µM
EC50 [1]: 22.6 µM
MIC50 ([2]; Candida albicans, KMM455): 34.1 ± 2.1 µM (≈ 18 µg/mL)
MIC50 ([3]; Escherichia coli): 39.5 ± 4 µM (≈ 20.9 µg/mL)
MIC50 [4, 10]: 32.1 ± 3.7 µM (≈ 17 µg/mL)
EC50 [5]: 22.9 µM
inhibition at 5 µM (HeLa cells; 5 µM, read-out: Colony growth inhibition): ~16%
inhibition at 10 µM (HeLa cells): 78%
EC50 at 24 h [8]: 23.5 µM

CC(=O)O[C@@H]1[C@@H](OC(C)=O)[C@H](SSc2sc(N)nc2-c2ccc(Cl)cc2)OC[C@H]1OC(C)=O [Compound 4i, 5-[(2,3,4-Tri-O-acetyl-β-D-xylopyranosyl)disulfanyl]-2-amino-4-(4-chlorophenyl)thiazole]
EC50 (HeLa (cervical cancer)): > 25 µM
EC50 [1]: > 25 µM
Hemolytic activity, erythrocytes (Human erythrocytes): > 25 µM
MIC50 ([2]; Candida albicans, KMM455): 2.8 ± 0.3 µM (≈ 1.49 µg/mL)
MIC50 ([3]; Escherichia coli): 8.7 ± 0.9 µM (≈ 4.64 µg/mL)
MIC50 [4, 10]: 3.1 ± 0.3 µM (≈ 1.65 µg/mL)
EC50 [5]: > 25 µM
Inhibition of Biofilm Formation MIC50, C. albicans [9]: 4.08 µM
Inhibition of Biofilm Formation MIC50, S. aureus [7]: 6.25 µM
EC50 at 24 h [8]: > 25 µM

Cl.Nc1nc(-c2ccc(Br)cc2)c(SS[C@@H]2O[C@H](CO)[C@@H](O)[C@H](O)[C@H]2O)s1 [Compound 5c, 5-[(β-D-glucopyranosyl)disulfanyl]-2-amino-4-(4-bromophenyl)thiazole hydrochloride]
EC50 (HeLa (cervical cancer)): > 25 µM
EC50 [1]: > 25 µM
Hemolytic activity, erythrocytes (Human erythrocytes): > 25 µM
MIC50 ([2]; Candida albicans, KMM455): 1.6 ± 0.2 µM
MIC50 ([3]; Escherichia coli): 5 ± 0.5 µM
MIC50 [4, 10]: 3 ± 0.2 µM
EC50 [5]: > 25 µM
Inhibition of Biofilm Formation MIC50, C. albicans [9]: 8.69 µM
EC50 at 24 h [8]: > 25 µM

Nc1nc(-c2ccc(Cl)cc2)c(SS[C@@H]2O[C@H](CO)[C@@H](O)[C@H](O)[C@H]2O)s1 [Compound 5d, 5-[(β-D-glucopyranosyl)disulfanyl]-2-amino-4-(4-clorophenyl)thiazole hydrochloride]
EC50 (HeLa (cervical cancer)): > 25 µM
EC50 [1]: > 25 µM
Hemolytic activity, erythrocytes (Human erythrocytes): > 25 µM
MIC50 ([2]; Candida albicans, KMM455): 3.1 ± 2.3 µM
MIC50 ([3]; Escherichia coli): 6.6 ± 0.5 µM
MIC50 [4, 10]: 2.5 ± 0.2 µM
EC50 [5]: > 25 µM
Inhibition of Biofilm Formation MIC50, E. coli [6]: 6.00 µM
EC50 at 24 h [8]: > 25 µM

Cl.Nc1nc(-c2ccc(Br)cc2)c(SS[C@@H]2OC[C@@H](O)[C@H](O)[C@H]2O)s1 [Compound 5h, 5-[(β-D-xylopyranosyl)disulfanyl]-2-amino-4-(4-bromophenyl)thiazole hydrochloride]
EC50 (HeLa (cervical cancer)): > 25 µM
EC50 [1]: > 25 µM
Hemolytic activity, erythrocytes (Human erythrocytes): > 25 µM
MIC50 [2]: 1.56 µM
MIC50 ([2]; Candida albicans, KMM455): 1.6 ± 0.1 µM
MIC50 [3]: 3.08 µM
MIC50 ([3]; Escherichia coli): 3.1 ± 0.3 µM
MIC50 [4]: 1.15 µM
MIC50 [4, 10]: 1.2 ± 0.1 µM
EC50 [5]: > 25 µM
Inhibition of Biofilm Formation MIC50, C. albicans [9]: 3.21 µM
Inhibition of Biofilm Formation MIC50, E. coli [6]: 8.92 µM
EC50 at 24 h [8]: 23.5 µM

Cc1ccc(-c2nc(N)sc2SS[C@@H]2OC[C@@H](O)[C@H](O)[C@H]2O)cc1.Cl [Compound 5j, 5-[(β-D-xylopyranosyl)disulfanyl]-2-amino-4-(p-tolyl)thiazole hydrochloride]
EC50 (HeLa (cervical cancer)): > 25 µM
EC50 [1]: > 25 µM
MIC50 ([2]; Candida albicans, KMM455): 15.9 ± 1.1 µM
MIC50 ([3]; Escherichia coli): 38 ± 3 µM
MIC50 [4, 10]: 34.5 ± 3 µM
EC50 [5]: > 25 µM
Inhibition of Biofilm Formation MIC50, E. coli [6]: 5.62 µM
EC50 at 24 h [8]: > 25 µM
